Laboratory results taken from US6953789B2, “Thiol compounds, their production and use” (Takeda Chemical Industries, Ltd., priority 1998, dated 2005).
pIC50: −log10 of the molar value.

biological target: T1, recombinant human MMP-13 (Homo sapiens, UniProt P45452); experiment: Assay of MMP-13 inhibiting activity (fluorogenic peptide substrate); type: biochemical; settings: Table 1; 37° C., 2 hours
T1 construct: made in house; host or cells: baculovirus (pBlueBac4 / Bac-N-Blue; virus made in Sf9), expressed in High-Five insect cells; culture supernatant used
Outline: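 Baculovirus-expressed human MMP-13 (High-Five cell supernatant) in pH 7.5 Tris buffer with 200 mM NaCl, 20 mM CaCl2, 0.1% Brij 35, 1 mM 2-mercaptoethanol; reaction started with 40 μM (stock) MOCAc-PLGL-A2pr(DNP)-AR-NH2, 2 h at 37 °C, stopped at pH 3.0. Fluorescence 330/405 nm; IC50 versus no-compound control.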

| SMILES | pIC50 |
| --- | --- |
| CC(=O)SCC1CC(=O)N(Cc2ccc(Oc3ccccc3)cc2)C1=O (centres unmarked) [Example 10, 3-Acethylmethyl-1-(4-phenoxybenzyl)pyrrolidine-2,5-dione] | 6.40 |
| O=C1CC(SSCC2CCCO2)C(=O)N1Cc1ccc(Oc2ccccc2)cc1 (centres unmarked) [Example 11, 3-[(Tetrahydro-2-furanyl)methyldithio]-1-(4-phenoxybenzyl)pyrrolidine-2,5-dione] | 7.00 |

same assay, conditions: Table 2; 37° C., 2 hours

| SMILES | pIC50 |
| --- | --- |
| CC1C(=O)N(Cc2ccc(Oc3ccccc3)cc2)C(=O)C1S (centres unmarked) [Example 8, 3-Mercapto-4-methyl-1-(4-phenoxybenzyl)pyrrolidine-2,5-dione] | 7.70 |
| COC(=O)CCSC1C(=O)N(Cc2ccc(Oc3ccccc3)cc2)C(=O)C1O (centres unmarked) [Example 9, 3-Hydroxy-4-[2-(methoxycarbonyl)ethylthio]-1-(4-phenoxybenzyl)pyrrolidine-2,5-dione] | 6.00 |

same assay, conditions: Table 3; 37° C., 2 hours

| SMILES | pIC50 |
| --- | --- |
| O=C1C[C@@H](S)CN1Cc1ccc(Oc2ccccc2)cc1 [Example 25, (R)-4-Mercapto-1-(4-phenoxybenzyl)pyrrolidin-2-one] | 8.52 |
| CC(=O)S[C@@H]1CC(=O)N(Cc2ccc(Oc3ccccc3)cc2)C1 [Example 24, (R)-4-Acetylthio-1-(4-phenoxybenzyl)pyrrolidin-2-one] | 8.05 |
| O=C1OC(S[C@@H]2CC(=O)N(Cc3ccc(Oc4ccccc4)cc3)C2)c2ccccc21 (stereo partly drawn) [Example 99, (4R)-4-[(3-Oxo-1,3-dihydro-2-benzofuran-1-yl)sulfanyl]-1-(4-phenoxybenzyl)-2-pyrrolidinone] | 8.15 |
| O=C(O)CCNC(=O)S[C@@H]1CC(=O)N(Cc2ccc(Oc3ccccc3)cc2)C1 [Example 61, N-({[(3R)-5-oxo-1-(4-phenoxybenzyl)pyrrolidinyl]sulfanyl}carbonyl)-p-alanine] | 8.74 |
| CCOC(=O)CSS[C@@H]1CC(=O)N(Cc2ccc(Oc3ccccc3)cc2)C1 [Example 82] | 7.30 |
| O=C(O)CS[C@@H]1CC(=O)N(Cc2ccc(Oc3ccccc3)cc2)C1 [Example 91, 2-{[(3R)-5-Oxo-1-(4-phenoxybenzyl)pyrrolidinyl]sulfanyl}acetic acid] | 6.00 |
| CCOC(=O)CCC(=O)S[C@@H]1CC(=O)N(Cc2ccc(Oc3ccccc3)cc2)C1 [Example 74, Ethyl 4-oxo-4-{[(3R)-5-oxo-1-(4-phenoxybenzyl)pyrrolidinyl]sulfanyl}butanoate] | 8.27 |
| COC(=O)c1ccc(CS[C@@H]2CC(=O)N(Cc3ccc(Oc4ccccc4)cc3)C2)cc1 [Example 95, Methyl 4-({[(3R)-5-oxo-1-(4-phenoxybenzyl)pyrrolidinyl]sulfanyl}methyl)benzoate] | 6.40 |
| O=C(Cc1ccc(Cl)cc1)SC1CC(=O)N(Cc2ccc(Oc3ccccc3)cc2)C1 (stereo not drawn) [Example 69, S-[5-oxo-1-(4-phenoxybenzyl)-3-pyrrolidinyl]-(4-chlorophenyl)ethanethioate] | 7.70 |
| O=C(O)CNC(=O)S[C@@H]1CC(=O)N(Cc2ccc(Oc3ccccc3)cc2)C1 [Example 59, [({[(3R)-5-Oxo-1-(4-phenoxybenzyl)pyrrolidinyl]sulfanyl}carbonyl)amino]acetic acid] | 8.70 |
| O=C(NCc1ccccc1)S[C@@H]1CC(=O)N(Cc2ccc(Oc3ccccc3)cc2)C1 [Example 54, S-[(3R)-5-oxo-1-(4-phenoxybenzyl)pyrrolidinyl]benzylthiocarbamate] | 8.82 |
| O=C1CC(SCCS(=O)(=O)c2ccccc2)CN1Cc1ccc(Oc2ccccc2)cc1 (centres unmarked) [Example 97, 1-(4-phenoxybenzyl)-4-{[2-(phenylsulfonyl)ethyl]sulfanyl}-2-pyrrolidinone] | 5.70 |
| O=C1CC(SCc2ccc(Br)cc2)CN1Cc1ccc(Oc2ccccc2)cc1 (centres unmarked) [Example 94, 4-[(4-Bromobenzyl)sulfanyl)-1-(4-phenoxybenzyl)-2-pyrrolidinone] | 6.52 |
| O=C(O)c1ccccc1SS[C@@H]1CC(=O)N(Cc2ccc(Oc3ccccc3)cc2)C1 [Example 86] | 6.30 |

same assay, conditions: Table 5; 37° C., 2 hours

| SMILES | pIC50 |
| --- | --- |
| CC(=O)S[C@@H]1CC(=O)N(Cc2ccc(Oc3ccccc3)cc2)[C@H]1CC(C)C (relative stereo) [Example 179, trans-4-Acetylthio-5-isobutyl-1-(4-phenoxybenzyl)pyrrolidin-2-one] | 8.05 |
| NC(=O)C1C(S)CC(=O)N1Cc1ccc(Oc2ccccc2)cc1 (stereo not drawn) [Example 188, trans-5-Aminocarbonyl-4-mercapto-1-(4-phenoxybenzyl)pyrrolidin-2-one] | 7.89 |
| C[C@H]1[C@@H](S)CC(=O)N1Cc1ccc(Oc2ccccc2)cc1 [Example 176, (4S,5S)-4-Mercapto-5-methyl-1-(4-phenoxybenzyl)pyrrolidin-2-one] | 7.30 |

same assay, conditions: Table 7; 37° C., 2 hours

| SMILES | pIC50 |
| --- | --- |
| O=C1CC(SSC2CC(=O)N(Cc3ccc(Oc4ccccc4)cc3)C2)CN1Cc1ccc(Oc2ccccc2)cc1 (centres unmarked) [Example 19, 4,4′-Dithiobis[1-(4-phenoxybenzyl)pyrrolidin-2-one]] | 6.70 |
| O=C1C[C@@H](SS[C@@H]2CC(=O)N(Cc3ccc(Oc4ccccc4)cc3)C2)CN1Cc1ccc(Oc2ccccc2)cc1 [Example 26, (4R,4′R)-4,4′-Dithiobis[1-(4-phenoxybenzyl)pyrrolidin-2-one]] | 7.15 |

same assay, conditions: Table 9; 37° C., 2 hours

| SMILES | pIC50 |
| --- | --- |
| CC(=O)SC1CC(=O)N(Cc2ccc(Oc3ccc(NS(C)(=O)=O)cc3)cc2)C1 (centres unmarked) [Example 146, 4-Acetylthio-1-[4-(4′-methylsulfonylaminophenoxy)benzyl]pyrrolidin-2-one] | 7.60 |
| CC(=O)Nc1ccc(Oc2ccc(CN3CC(SC(C)=O)CC3=O)cc2)cc1 (centres unmarked) [Example 144, 4-Acetylthio-1-[4-(4′-acetoaminophenoxy)benzyl]pyrrolidin-2-one] | 8.57 |
| O=C1C[C@@H](S)CN1Cc1ccc(Oc2ccc(F)cc2)cc1 [Example 118, (R)-4-Mercapto-1-[4-(4′-fluorophenoxy)benzyl]pyrrolidin-2-one] | 8.70 |
| CC(=O)SC1CC(=O)N(Cc2ccc(Oc3ccc(O)cc3)cc2)C1 (centres unmarked) [Example 136, 4-Acetylthio-1-[4-(4′-hydroxyphenoxy)benzyl]pyrrolidin-2-one] | 8.05 |
| O=C1CC(S)CN1Cc1ccc(Oc2cccc(F)c2)cc1 (centres unmarked) [Example 115, 4-Mercapto-1-[4-(3′-fluorophenoxy)benzyl]pyrrolidin-2-one] | 8.40 |
| O=C1CC(S)CN1Cc1ccc(Oc2ccc([N+](=O)[O-])cc2)cc1 (centres unmarked) [Example 143, 4-Mercapto-1-[4-(4′-nitrophenoxy)benzyl]pyrrolidin-2-one] | 7.96 |
| CCOc1ccc(Oc2ccc(CN3CC(S)CC3=O)cc2)cc1 (centres unmarked) [Example 139, 4-Mercapto-1-[4-(4′-ethoxyphenoxy)benzyl]pyrrolidin-2-one] | 8.22 |
| CC(=O)SC1CC(=O)N(Cc2ccc(Oc3ccc(F)cc3)cc2)C1 (centres unmarked) [Example 30, 4-Acetylthio-1-(4-(4′-fluorophenoxy)benzyl)pyrrolidin-2-one] | 8.00 |
| CCOC(=O)c1ccc(Oc2ccc(CN3CC(SC(C)=O)CC3=O)cc2)cc1 (centres unmarked) [Example 131, 4-Acetylthio-1-[4-(4′ethoxycarbonylphenoxy)benzyl]pyrrolidin-2-one] | 7.70 |
| CC(=O)SC1CC(=O)N(Cc2ccc(Oc3cccc(F)c3)cc2)C1 (centres unmarked) [Example 114, 4-Acetylthio-1-[4-(3′-fluorophenoxy)benzyl]pyrrolidin-2-one] | 8.00 |
| CCOc1ccc(Oc2ccc(CN3CC(SC(C)=O)CC3=O)cc2)cc1 (centres unmarked) [Example 138, 4-Acetylthio-1-[4-(4′-ethoxyphenoxy)benzyl]pyrrolidin-2-one] | 7.70 |
| CC(=O)S[C@H]1CC(=O)N(Cc2ccc(Oc3ccc(F)cc3)cc2)C1 [Example 116, (S)-4-Acethylthio-1-[4-(4′-fluorophenoxy)benzyl)pyrrolidin-2-one] | 5.15 |

same assay, conditions: Table 10; 37° C., 2 hours

| SMILES | pIC50 |
| --- | --- |
| CC(=O)SC1CC(=O)N(Cc2ccc(OCc3ccccc3)cc2)C1 (centres unmarked) [Example 165, 4-Acetylthio-1-(4-benzyloxybenzyl)pyrrolidin-2-one] | 6.00 |
| O=C(c1ccccc1)c1ccc(CN2CC(S)CC2=O)cc1 (centres unmarked) [Example 162, 4-Mercapto-1-(4-benzoylbenzyl)pyrrolidin-2-one] | 7.70 |

same assay, conditions: Table 11; 37° C., 2 hours

| SMILES | pIC50 |
| --- | --- |
| CC(=O)SC1CC(=O)N(Cc2ccc(Oc3ccccn3)cc2)C1 (centres unmarked) [Example 156, 4-Acetylthio-1-[4-(2′-pyridyloxy)benzyl]pyrrolidin-2-one] | 6.15 |
| Cc1ccc(S(=O)(=O)N(c2ccccc2)c2ccc(CN3CC(S)CC3=O)cc2)cc1 (centres unmarked) [Example 204, 4-Mercapto-1-[4-(N-phenyl-N-p-toluenesulfonylamino)benzyl]pyrrolidin-2-one] | 5.41 |
| CC(=O)SC1CC(=O)N(Cc2ccc(Oc3ccsc3)cc2)C1 (centres unmarked) [Example 157, 4-Acetylthio-1-[4-(3′-thienyloxy)benzyl]pyrrolidin-2-one] | 8.22 |

same assay, conditions: Table 13; 37° C., 2 hours

| SMILES | pIC50 |
| --- | --- |
| CC(=O)SC1CCC(=O)N(Cc2ccc(Oc3ccccc3)cc2)C1=O (centres unmarked) [Example 42, 3-Acetylthio-1-(4-phenoxybenzyl)piperidine-2,6-dione] | 7.15 |

tested on: nasal cartilage; experiment: Assay of cartilage collagen degradation inhibiting activity (IL-1β-stimulated nasal cartilage pieces, hydroxyproline release); type: cell-based, cow; settings: 504 h; at 1 μM of compound; human recombinant IL-1β; incubation 3 weeks
Method: A nasal cartilage was isolated aseptically from a sacrificed cow, and preincubated in a Dulbecco's modified eagle medium containing 5% heat-inactivated fetal bovine serum, 100 units/ml of penicillin G and 100 units/ml of streptomycin at 37° C. under 5% CO2 and 95% air for 3 days. After completing the preincubation, a cartilage piece weighing about 10 mg was prepared and placed in 100 μl of a medium supplemented with a human recombinant interleukin-1β (IL-1β: *ZENZYME*) and a test compound. After incubating for 3 weeks in total during which the culture medium was replaced on the weekly basis, the total amount of hydroxyproline liberated into the culture medium and the amount of hydroxyproline remaining in the cartilage piece were determined and % collagen degradation was calculated. The collagen degradation inhibiting activity of a test compound was determined according to the following equation. Collagen degradation inhibiting activity (%)=100×(Ci−Cs)/(Ci−Cc) Equation: wherein Cc is % collagen degradation in the absence of both of IL-1β and compound, Ci is % collagen degradation in the presence of IL-1β, and Cs is a % collagen degradation in the presence of both of IL-1β and a test compound.

| SMILES | inhibition at 1 µM [%] |
| --- | --- |
| O=C1C[C@@H](S)CN1Cc1ccc(Oc2ccccc2)cc1 [Example 25, (R)-4-Mercapto-1-(4-phenoxybenzyl)pyrrolidin-2-one] | 88 |
| CC(=O)SC1CC(=O)N(Cc2ccc(Oc3ccccn3)cc2)C1 (centres unmarked) [Example 156, 4-Acetylthio-1-[4-(2′-pyridyloxy)benzyl]pyrrolidin-2-one] | 84 |
| CC(=O)S[C@@H]1CC(=O)N(Cc2ccc(Oc3ccccc3)cc2)C1 [Example 24, (R)-4-Acetylthio-1-(4-phenoxybenzyl)pyrrolidin-2-one] | 91 |
